Measured values as given in US12296027B2, “Molecular renal probes for detecting acute kidney injury” (Nanyang Technological University, priority 2019, dated 2025).
“And” between values parts separate entries of the source, which are not always exact repeats. Equal values may be shown once.

Experiments:
[1] = in 3 h, Patients; cited from earlier work
[2] = In vivo biodistribution by NIRF imaging; parameters: species or system mice; settings: i.v., 8 μmol kg^−1 (MRPD 32 μmol kg^−1)
Protocol: All animal studies were performed in compliance with the guidelines set by the Institutional Animal Care and Use Committee (IACUC), Sing Health. Female nude mice (Tac:Cr:(NCr)-Fox1nu, 8 weeks old) were obtained from InVivos Pte Ltd (Singapore). Aged female nude mice (25 weeks old) were obtained by feeding after receive at 8 weeks old. Female Balb/c mice (10 weeks old), male type 2 diabetic BKS-db mice (BKS-Lepr^em2Cd479 with a C57BLKS/J background, 12 weeks old) and male nondiabetic C57BLKS/J wild-type mice (12 weeks) were obtained from Nanjing Biomedical Research Institute of Nanjing University (Nanjing, China). NCr nude mice were i.v. injected with 0.2 ml saline (control), the uncaged fluorophores (CMe, CP2, CP5 and CCD, 8 μmol kg^−1 body weight) or MRPD (32 μmol kg^−1 body weight), and imaged using the IVIS spectrum imaging system at 30 and 60 min post-injection. The abdominal cavity and resected organs from mice were imaged after sacrifice at t=60 min post-injection. Fluorescence images were acquired using the IVIS spectrum imaging system with excitation at 675±10 nm (640±10 nm for MRPD) and emission at 720±10 nm (760±10 nm for MRPD). Fluorescence intensities for each organ were analysed by the region of interest (ROI) analysis using the Living Image 4.3 Software (3 mice were analysed for each sample).

[3] = Renal clearance efficiency studies (urine HPLC); type: in vivo; settings: healthy mice, i.v.
Protocol: NCr nude mice were i.v. injected with the uncaged fluorophores (CMe, CP2, CP5 and CCD, 8 μmol kg^−1 body weight), MRPs1-3 (8 μmol kg^−1 body weight) or MRPD (32 μmol kg^−1 body weight) and placed in metabolic cages (3 mice were analysed for each sample). […] Urine was collected at 1, 3, 6, 9 and 24 h post-injection, centrifuged at 4500 r.p.m. for 8 min and filtered by 0.22 μm syringe filter. Excretion of the uncaged fluorophores and MRPs in the urine was quantified using HPLC. Mice were sacrificed to image resected organs after 24 h urine collection. Fluorescence intensities for resected organs were analysed by the ROI analysis using the Living Image 4.3 Software. Major organs were collected, homogenised in PBS buffer (10 mM, pH 7.4) and centrifuged at 4500 r.p.m for 15 min to remove insoluble components. Fluorescence intensities of the final supernatants were measured on fluorescence spectrophotometer.
Mice were i.v. injected with ADR (30 μmol kg^−1 body weight) and placed in metabolic cages. Urine was collected at 1, 3, 6, 9 and 24 h post-injection, diluted in PBS and centrifuged at 4500 r.p.m. for 10 min and filtered by 0.22 μm syringe filter. ADR in the urine was quantified using HPLC. The absorption and fluorescence spectra were measured for the urine samples. […]

[4] = Photophysical properties (absorption, fluorescence, quantum yield); type: physicochemical
Protocol: Optical measurement. […] The ADR solution (30 μM) was incubated with KO2 (60 μM) and NAG (40 mU), respectively, in PBS (10 mM, pH 7.4) at 37° C. […] Fluorescence images were acquired using the IVIS spectrum imaging system with excitation at 675±10 nm (640±10 nm for MRPD) and emission at 720±10 nm (760±10 nm for MRPD) and the acquisition time of 0.1 s. Chemiluminescence images were acquired under bioluminescence mode with open filter and the acquisition time of 1 s. The sensing capability of MRPs was analysed through HPLC. UV-Vis and fluorescence spectra of the uncaged fluorophores solution (30 μM) in PBS (10 mM, pH 7.4) were recorded on UV-Vis and fluorescence spectrophotometers.
Measurement of fluorescence quantum yields. ICG was used as a standard with a known fluorescence quantum yield (ϕ) value of 13% in DMSO (R. C. Benson, H. A. Kues, J. Chem. Eng. Data 1977, 22, 379-383). Fluorescence quantum yields were calculated using the following equation: ϕs/ϕf=(As/Af)×(Abss/Absf)×(ηs^2/ηf^2), Where ϕs and ϕf are the fluorescence quantum yields of the standard and the samples, respectively; As and Af are the emission areas of the standard and the samples, respectively; Abss and Absf are the absorbance of the standard and the samples at the wavelength of excitation; ηs and ηf are the refractive indices of the standard and the samples, respectively.

Row | SMILES | Renal clearance efficiency [1] [% ID in 3 h] | biodistribution at 1 h post-injection (ex vivo NIRF) [2] | renal clearance efficiency at 24 h post-injection [3] | Renal clearance efficiency (%) ([3]; Table 5) | Stokes shift [4] [nm] | λab, wavelength of maximum absorbance ([4]; PBS pH 7.4) | λem, wavelength of maximum emission ([4]; PBS pH 7.4)
1 | O=C([O-])CN=C([O-])CN=C([O-])CN=C([O-])C[S-].[O-2].[Tc+4] [^99mTc-MAG3] | 90 |  |  |  |  |  | 
2 | C[N+]1=C(/C=C/C2=C3Oc4cc(O)ccc4C=C3CCC2)C(C)(C)c2ccccc21 [CMe] |  | mainly accumulated in the liver, gallbladder, and intestine | nearly undetectable in urine | <5 | 25 | 690 nm and 697 nm | 720 nm and 722 nm
